Measured values taken from PubChem BioAssay AID2060905 (Molecular Pharmacology Branch, DTP, NCI, 2025).
pIC50: −log10 of the molar value.

Test system: 282377-053-R-J1-PDC complex spheroid viability
Assay: Anticancer human tumor 282377-053-R-J1-PDC patient-derived colon adenocarcinoma cell line growth inhibition [RAS]
Settings: for pIC50: curve of first compound; for viability, T/C: stronger effect = lower value
Source text: RAS pathway inhibitors in Combinations in Complex Spheroids
A high-throughput screen of multi-cell type tumor spheroids was designed to identify active combinations of RAS pathway inhibitors and targeted small molecules. Complex spheroids include a stromal component modeled by human endothelial cells (HUVEC) and fibroblasts modeled by human mesenchymal stem cells (MSCs). The concentration ranges selected for each drug and investigational agent were based upon clinically achievable concentrations if the clinical Cmax of the agent was known.
Compounds. The drugs and investigational agents: abemaciclib (NSC768073), cobimetinib (NSC768068), divarasib (GDC6063, NSC841802), docetaxel (NSC628503), GDC-1971 (RLY-1971, NSC841576), gemcitabine (NSC613327), inavolisib (NSC800729), ipatasertib (NSC767898), KB-0742 (NSC834161), MRTX-1133 (NSC836407), osimertinib (NSC779217), RMC-4630 (NSC839698), RMC-6236 (NSC851965), RMC-6291 (NSC852671), Ro-3306 (NSC812927), sapanisertib (NSC764658), SN-38 (NSC673596), staurosporine (NSC755774), SY5609 (NSC837396), and tovorafenib (DAY101, NSC766906), were obtained from the National Cancer Institute (NCI) Developmental Therapeutics Program Chemical Repository. The FDA-approved anticancer drug set is available from the NCI Developmental Therapeutics Program. […] The stock solutions were prepared in dimethyl sulfoxide (DMSO, Sigma-Aldrich, St. Louis, MO, cat. D2650) at 800-fold the tested concentration and stored at -70 degrees C prior to their use. All drugs and investigational agents were tested over a range starting from a high concentration at or near the clinical Cmax and decreasing in half-log increments. If the clinical Cmax for an agent had not been determined, the highest concentration tested was 10 microM.
Cell Culture. All cells were maintained in an incubator at 37 degrees C and 5% CO2 with 95% humidity. The PDC lines were cultured according to standard operating procedures established by the NCI PDMR. All PDCs were thawed and cultured in Matrigel-coated flasks prepared with a working solution of 1X Ham's F-12 nutrient mix, without supplementation (Invitrogen, Waltham, MA, cat. 11765054), 100 U/mL penicillin-streptomycin (Invitrogen, cat. 15140122), and 2.5% Matrigel (Corning Inc., Corning, NY, cat. 354248) for the first three passages. The 362531-283-R-J2-PDC and 782815-120-R-J1-PDC lines were cultured in 6C/Colon 1B media, which includes advanced DMEM/F-12 (Thermo Fisher Scientific, cat. 12634028), 10 mM HEPES (Thermo Fisher Scientific, cat. 15630080), 1X GlutaMAX supplement (Thermo Fisher Scientific, cat. 35050061), 0.1 mg/mL primocin (InvivoGen, San Diego, CA, cat. ant-pm-2), 10% defined fetal bovine serum, heat inactivated (HyClone Laboratories Inc., Logan, UT, cat. SH30070.03HI), 50% L-WRN conditioned media (ATCC, cat. CRL-3276), 1.25 mM N-Acetyl-L-cysteine (Sigma-Aldrich, cat. A9165), 10 mM nicotinamide (Sigma-Aldrich, cat. N0636), 1X B-27 supplement (Thermo Fisher Scientific, cat. 17504044), 1X N-2 supplement (Thermo Fisher Scientific, cat. 17502048), 50 ng/mL human EGF (Thermo Fisher Scientific, cat. PHG0311), and 10 microM Y-27632 dihydrochloride (Tocris Bioscience, cat. 1254). The K12877-001-R-J1-PDC line was cultured in 6I media, which includes all 6C/Colon 1B media plus 10 ng/mL human FGF-10 (PeproTech, cat. 100-26), 1 ng/mL human FGF-2 (PeproTech, cat. 100-18B), 1 µM prostaglandin E2 (Tocris Bioscience, cat. 2296), […] hydrocortisone (Sigma-Aldrich, cat. H4001), and […] bovine insulin (Sigma-Aldrich, cat. I6634). The K86415-001-R-J1-PDC line was cultured in 6D media, which includes all 6C/Colon 1B media components minus the L-WRN conditioned media. The 485176-168-R4-J1-PDC was cultured in PANC media, which includes all 6C/Colon 1B media plus 100 ng/mL human FGF-10 (PeproTech, cat. 100-26), 500 nM SB-431542 (Selleckchem, cat. S1067), and 10 nM gastrin (Tocris Bioscience, cat. 3006). […]
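Note: spheroids exposed to agents for seven days before readout.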
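Throughout, for viability, T/C: luminescence viability as percent of DMSO vehicle control wells.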

## CC1(O)CCCC1n1c(=O)c(C(F)F)cc2cnc(NC3CCN(S(C)(=O)=O)CC3)nc21 (configuration not stated) + C#Cc1c(F)ccc2cc(O)cc(-c3ncc4c(N5CC6CCC(C5)N6)nc(OCC56CCCN5CC(F)C6)nc4c3F)c12
Second compound 0.0316 µM
  pIC50: 5.20
Second compound 0.1 µM
  pIC50: 5.22
Second compound 0.316 µM
  pIC50: 5.21
Second compound 1 µM
  pIC50: 5.21
Second compound 3.16 µM
  pIC50: 5.21
Second compound 10 µM
  pIC50: 5.21
Second compound 0.0316 µM, first compound 0.0316 µM
  viability, T/C: 102%
Second compound 0.0316 µM, first compound 0.1 µM
  viability, T/C: 115%
Second compound 0.0316 µM, first compound 0.316 µM
  viability, T/C: 135%
Second compound 0.0316 µM, first compound 1 µM
  viability, T/C: 121%
Second compound 0.0316 µM, first compound 3.16 µM
  viability, T/C: 121%
Second compound 0.0316 µM, first compound 10 µM
  viability, T/C: 2.6%
Second compound 0.1 µM, first compound 0.0316 µM
  viability, T/C: 109%
Second compound 0.1 µM, first compound 0.1 µM
  viability, T/C: 117%
Second compound 0.1 µM, first compound 0.316 µM
  viability, T/C: 128%
Second compound 0.1 µM, first compound 1 µM
  viability, T/C: 125%
Second compound 0.1 µM, first compound 3.16 µM
  viability, T/C: 111%
Second compound 0.1 µM, first compound 10 µM
  viability, T/C: 3.18%
Second compound 0.316 µM, first compound 0.0316 µM
  viability, T/C: 117%
Second compound 0.316 µM, first compound 0.1 µM
  viability, T/C: 126%
Second compound 0.316 µM, first compound 0.316 µM
  viability, T/C: 120%
Second compound 0.316 µM, first compound 1 µM
  viability, T/C: 108%
Second compound 0.316 µM, first compound 3.16 µM
  viability, T/C: 112%
Second compound 0.316 µM, first compound 10 µM
  viability, T/C: 3.11%
Second compound 1 µM, first compound 0.0316 µM
  viability, T/C: 98.9%
Second compound 1 µM, first compound 0.1 µM
  viability, T/C: 111%
Second compound 1 µM, first compound 0.316 µM
  viability, T/C: 123%
Second compound 1 µM, first compound 1 µM
  viability, T/C: 110%
Second compound 1 µM, first compound 3.16 µM
  viability, T/C: 122%
Second compound 1 µM, first compound 10 µM
  viability, T/C: 3.32%
Second compound 3.16 µM, first compound 0.0316 µM
  viability, T/C: 94.4%
Second compound 3.16 µM, first compound 0.1 µM
  viability, T/C: 127%
Second compound 3.16 µM, first compound 0.316 µM
  viability, T/C: 130%
Second compound 3.16 µM, first compound 1 µM
  viability, T/C: 102%
Second compound 3.16 µM, first compound 3.16 µM
  viability, T/C: 113%
Second compound 3.16 µM, first compound 10 µM
  viability, T/C: 4.31%
Second compound 10 µM, first compound 0.0316 µM
  viability, T/C: 99%
Second compound 10 µM, first compound 0.1 µM
  viability, T/C: 117%
Second compound 10 µM, first compound 0.316 µM
  viability, T/C: 116%
Second compound 10 µM, first compound 1 µM
  viability, T/C: 121%
Second compound 10 µM, first compound 3.16 µM
  viability, T/C: 132%
Second compound 10 µM, first compound 10 µM
  viability, T/C: 2.84%
